Source: patent US5708015A, “Method for using pharmaceutical compositions containing 2-(2-alkyphenyl-amino)-thiazolines as adrenergic agents” (Allergan, priority 1996, dated 1998)
Where two headings read alike, the source gives them in different places.

Experiments:
[1] = biological target: T1, α2 A adrenergic receptor (HT-29 cells) (Homo sapiens, UniProt P08913); test: Alpha2 A (HT-29 cells) receptor binding assay
T1 construct: Membrane suspensions were prepared from human cerebral cortex (HCC), HT-29 cells (HT) and rat kidney cortex (RtKC); endogenous in cells; host or cells: HT-29 cells
Source text: (§1) The present compound or compounds may be included in a medication composition together with one or more other components to provide a medication composition which can be effectively administered. Such other components, e.g., carriers, anti-oxidants, bulking agents and the like, may be chosen from those materials which are conventional and well known in the art, e.g., as being included in medication compositions with α2 agonists. Whereas the effective dose of the compounds of the present compositions will depend on the nature of the host mammal and the specific diesease or condition treated it is anticipated that an effective daily dose of the compounds is in the range of 1 microgramm--10 mg per kg/body weight of the host. The ability of the compounds within the present invention to bind strongly and selectively to α2 adrenergic receptors in preference over α1 adrenergic receptors was confirmed by the following assay procedures which are generally recognized in the art to provide pertinent information with respect to the adrenergic activity of the compounds assayed: alpha1 (human brain) assay, alpha2 A (HT-29 cells) assay, and alpha2 B (rat kidney) assay. A description of these assay procedures is as follows.
(§2) Membrane preparation: Membrane suspensions were prepared from human cerebral cortex (HCC), HT-29 cells (HT) and rat kidney cortex (RtKC), as applicable. Tissues were homogenized in iced-cold buffer [250 mM sucrose, 5 mM tris, pH 7.4 (RtKC), or 50 mM Tris-HCl, 5 mM EDTA, pH 7.4 (HCC, HT)] with a Polytron homogenizer for 30 secs at setting #7, and centrifuged for 10 minutes at 300×g at 4° C. The supernatant was diluted 1:2 with 50 mM Tris-HCl buffer, pH 7.4 (RkCC, HCC) or pH 8.0 (HT) then centrifuged at 49,000×g for 15-20 minutes. The pellet fraction was washed 3 times (resuspended in Tris-HCl buffer and centrifuged for 15-20 minutes at 49,000×g). The pellet was then stored at -80° C. until the binding assay. Binding studies: The radioligands [^3 H] rauwolscine (specific activity 80 Ci/mmol) and [^3 H] prazosin (specific activity 77 Ci/mmol) were obtained from New England Nuclear, Boston, Mass. Frozen membrane pellet was resuspended in glycine glycine buffer, pH 7.6. Membrane protein homogenate (150-300 μg) was incubated with radioligand under the following conditions: 22° C., 30 minutes (HCC, HT), 0° C., 120 minutes (RtKC), in a final volume of 500 μl. At the end of the incubation period, the samples were filtered through glass fiber filters (Whatman GF/B) in a 96-well cell harvester and rapidly washed four times with 4 mls of iced-cold 50 mM Tris-HCl buffer. The filters were then oven dried and transferred to scintillation vials containing 5 mls of Beckman's Ready Protein^R scintillation cocktail for counting. Non-specific binding was defined by 10 μM phentolamine. Protein concentrations were determined with a protein assay kit from Bio Rad. Binding isotherms, equilibrium dissociation and affinity constants were analyzed and determined by the non-linear least squares curve fitting program AccuFit Competition/Saturation by Beckman.
(§3) As it will be recognized by those skilled in the art from the forogoing descriptions, the described assays are radioligand assays which measure the binding of the test compound to the respective α1 or α2 receptor. […]

[2] = biological target: T2, α2 B adrenergic receptor (rat kidney cortex membranes) (Rattus norvegicus, UniProt P19328); test: Alpha2 B (rat kidney) receptor binding assay
T2 construct: Membrane suspensions were prepared from human cerebral cortex (HCC), HT-29 cells (HT) and rat kidney cortex (RtKC); from tissue; host or cells: rat kidney cortex membranes
T2 sequence (P19328 1-453): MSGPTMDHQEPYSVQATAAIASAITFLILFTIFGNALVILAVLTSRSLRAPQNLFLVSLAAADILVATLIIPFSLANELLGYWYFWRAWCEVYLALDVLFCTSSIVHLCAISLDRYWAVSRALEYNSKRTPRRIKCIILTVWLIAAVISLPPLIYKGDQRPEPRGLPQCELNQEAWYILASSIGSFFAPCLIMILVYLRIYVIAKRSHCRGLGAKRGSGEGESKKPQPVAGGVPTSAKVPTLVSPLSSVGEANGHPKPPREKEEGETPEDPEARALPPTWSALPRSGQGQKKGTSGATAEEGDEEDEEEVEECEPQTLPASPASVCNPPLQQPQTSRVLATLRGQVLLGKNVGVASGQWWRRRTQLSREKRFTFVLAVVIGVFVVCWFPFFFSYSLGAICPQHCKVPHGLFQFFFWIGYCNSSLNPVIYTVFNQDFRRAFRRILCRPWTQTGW
Source text: as §1, §2, §3

[3] = biological target: α1 adrenergic receptor (human cerebral cortex membranes); test: Alpha1 (human brain) receptor binding assay; conditions: 22° C., 30 minutes, [3H] radioligand
Source text: as §1
as §2, with “Membrane protein homogenate (150-300 μg) was incubated with radioligand under the following conditions: 22° C., 30 minutes (HCC, HT), 0° C., 120 minutes (RtKC), in a final volume of 500 μl. At the end of the incubation period, the samples were filtered through glass fiber filters (Whatman GF/B) in a 96-well cell harvester and rapidly washed four times with 4 mls of iced-cold 50 mM Tris-HCl buffer.” left out, “Non-specific binding was defined by 10 μM phentolamine.” left out, “Beckman. […]” for “Beckman.”

T1 sequence (P08913 whole entry): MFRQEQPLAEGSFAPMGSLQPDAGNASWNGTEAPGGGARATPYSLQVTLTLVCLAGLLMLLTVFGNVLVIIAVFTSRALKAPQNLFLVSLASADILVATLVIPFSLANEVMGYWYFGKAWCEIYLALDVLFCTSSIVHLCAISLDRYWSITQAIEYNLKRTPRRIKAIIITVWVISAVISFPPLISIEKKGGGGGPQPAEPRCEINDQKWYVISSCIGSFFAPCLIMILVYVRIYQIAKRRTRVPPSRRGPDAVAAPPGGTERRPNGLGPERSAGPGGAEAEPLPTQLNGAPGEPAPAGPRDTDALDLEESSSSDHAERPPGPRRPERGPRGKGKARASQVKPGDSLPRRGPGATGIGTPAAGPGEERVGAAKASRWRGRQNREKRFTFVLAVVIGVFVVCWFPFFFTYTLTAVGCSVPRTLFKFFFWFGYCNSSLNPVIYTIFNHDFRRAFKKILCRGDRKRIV

SMILES	Ki [1] [nM]	Ki [2] [nM]	Ki [3] [nM]	Ki ([2]; rat kidney cortex membranes, 0° C., 120 minutes, [3H] radioligand, read-out: α2 B Ki) [nM]
Cc1ccccc1N=C1NCCN1 [Compound 3a, 2-(2-methylphenylimino)-imidazolidine]	7.5	25.3	2170	–
Cc1ccccc1NC1=NCCO1 [Compound 1a]	35.7	–	7400	208
c1cc2c(c(NC3=NCCO3)c1)CCCC2 [Compound 2, 2-(5,6,7,8-tetrahydronaphthylamino)-oxazoline]	2.2	6.2	–	–
Cc1cccc(N=C2NCCN2)c1C [Compound 3, 2-(2,3-Dimethylphenylimino)-imidazolidine]	5.8	1.5	434	–
Cc1cccc(NC2=NCCO2)c1C [Compound 1, 2-[2,3-Dimethylphenylamino)-oxazoline]	5.1	8.5	1210	–
